Source: patent US8680272B2, “3-arylethynyl substituted quinazolinone compounds” (Council of Scientific & Industrial Research, priority 2011, dated 2014)

What was measured:
[1] = system: seven ovarian cancer cell lines (IGROV1, OVCAR-3, OVCAR-4, OVCAR-5, OVCAR-8, NCI/ADR-RES and SK-OV-3); assay: Anticancer activity, SRB assay, ovarian panel; format: cell-based, human
Protocol: (§1) Some of biological activity studies were carried out at the National Cancer Institute (NCI), Maryland, USA.
(§2) The compounds were evaluated for anticancer activity against sixty human cancer cells derived from nine cancer types (leukemia cell line, non-small-cell lung cell line, colon cell line, CNS cell line, melanoma cell line, ovarian cell line, prostate cell line, renal cell line and breast cancer cell line) as shown in Table 1. For each compound, dose response curves for each cell line were measured at a minimum of five concentrations at 10 fold dilutions. A protocol of 48 h continuous drug exposure was used and a sulforhodamine B (SRB) protein assay was used to estimate cell viability or growth.

K-562 = assay: Anticancer activity, SRB assay, leukemia cell line K-562; format: cell-based; conditions: Homo sapiens, K562; Leukemia K-562; 48 h continuous drug exposure; read-out: Growth Inhibition GI50
Protocol: as §1, §2

MCF7 = assay: Anticancer activity, SRB assay, breast cell line MCF7; format: cell-based; conditions: Homo sapiens, 48 h continuous drug exposure, read-out: Growth Inhibition GI50
Protocol: as §1, §2

LOX IMVI = assay: Anticancer activity, SRB assay, melanoma cell line LOX IMVI; format: cell-based; conditions: Homo sapiens, 48 h continuous drug exposure, read-out: Growth Inhibition GI50
Protocol: as §1, §2

UACC-62 = assay: Anticancer activity, SRB assay, melanoma cell line UACC-62; format: cell-based; conditions: Homo sapiens; Melanoma UACC-62; 48 h continuous drug exposure; read-out: Growth Inhibition GI50
Protocol: as §1, §2

IGROV1 = assay: Anticancer activity, SRB assay, ovarian cell line IGROV1; format: cell-based, human; conditions: Homo sapiens, IGROV-1, 48 h continuous drug exposure, —^b means GI50 values not attained at the concentrations used, read-out: Growth Inhibition GI50
Protocol: as §1, §2

HT29 = assay: Anticancer activity, SRB assay, colon cell line HT29; format: cell-based; conditions: Homo sapiens, HT-29, 48 h continuous drug exposure, read-out: Growth Inhibition GI50
Protocol: as §1, §2

HOP-92 = assay: Anticancer activity, SRB assay, non-small lung cell line HOP-92; format: cell-based, human; conditions: Homo sapiens; Non-small lung HOP-92; 48 h continuous drug exposure; —^b means GI50 values not attained at the concentrations used; read-out: Growth Inhibition GI50
Protocol: as §1, §2

T-47D = assay: Anticancer activity, SRB assay, breast cell line T-47D; format: cell-based, human; conditions: Homo sapiens, T47D; Breast T-47D; 48 h continuous drug exposure; —^b means GI50 values not attained at the concentrations used; read-out: Growth Inhibition GI50
Protocol: as §1, §2

[2] = Anticancer activity, SRB assay, non-small cell lung panel; format: cell-based, human; conditions: Homo sapiens; nine non-small cell lung cancer cell lines; exposure period of at least 48 h; read-out: GI50 (range over the panel)
Protocol: as §1, §2

[3] = system: nine non-small cell lung cancer cell lines (A549/ATCC, EKVX, HOP-62, HOP-92, NCI-H226, NCI-H23, NCI-H322M, NCI-H460 and NCI-H522); assay: as above; format: cell-based, human; conditions: Non-small cell lung
Protocol: as §1, §2

SF-539 = assay: Anticancer activity, SRB assay, CNS cell line SF-539; format: cell-based, human; conditions: Homo sapiens; CNS SF-539; 48 h continuous drug exposure; —^b means GI50 values not attained at the concentrations used; read-out: Growth Inhibition GI50
Protocol: as §1, §2

NCI-H23 = assay: Anticancer activity, SRB assay, non-small lung cell line NCI-H23; format: cell-based; conditions: Homo sapiens, Non-small lung NCl-H23, 48 h continuous drug exposure, read-out: Growth Inhibition GI50
Protocol: as §1, §2

[4] = system: sixty human cancer cell lines derived from nine cancer types; assay: Anticancer activity against sixty human cancer cell lines; format: cell-based
Protocol: as §1, §2

DU-145 = assay: Anticancer activity, SRB assay, prostate cell line DU-145; format: cell-based, human; conditions: Homo sapiens; Prostate DU-145; 48 h continuous drug exposure; —^b means GI50 values not attained at the concentrations used; read-out: Growth Inhibition GI50
Protocol: as §1, §2

NCI-H460 = assay: Anticancer activity, SRB assay, non-small lung cell line NCI-H460; format: cell-based; conditions: Homo sapiens, Non-small lung NCl-H460, 48 h continuous drug exposure, read-out: Growth Inhibition GI50
Protocol: as §1, §2

HL-60(TB) = assay: Anticancer activity, SRB assay, leukemia cell line HL-60(TB); format: cell-based; conditions: Homo sapiens; Leukemia HL-60(TB); 48 h continuous drug exposure; read-out: Growth Inhibition GI50
Protocol: as §1, §2

SN12C = assay: Anticancer activity, SRB assay, renal cell line SN12C; format: cell-based, human; conditions: Homo sapiens, 48 h continuous drug exposure, —^b means GI50 values not attained at the concentrations used, read-out: Growth Inhibition GI50
Protocol: as §1, §2

[5] = system: eight renal cancer cell line (786-0, A498, ACHN, CAKI-1, SN12C, TK-10, UO-31 and RXF 393); assay: Anticancer activity, SRB assay, renal panel; format: cell-based, human; design: mean graph midpoint values (MG_MID) of Log10LC50 / mean graph midpoint values (MG_MID) of log10 TGI (Log10TGI50): unit not given here
Protocol: as §1, §2

NCI-H322M = assay: Anticancer activity, SRB assay, non-small lung cell line NCI-H322M; format: cell-based, human; conditions: Homo sapiens, NCI-H322M; Non-small lung NCl-H322M; 48 h continuous drug exposure; —^b means GI50 values not attained at the concentrations used; read-out: Growth Inhibition GI50
Protocol: as §1, §2

SF-295 = assay: Anticancer activity, SRB assay, CNS cell line SF-295; format: cell-based, human; conditions: Homo sapiens; CNS SF-295; 48 h continuous drug exposure; —^b means GI50 values not attained at the concentrations used; read-out: Growth Inhibition GI50
Protocol: as §1, §2

NCI-H522 = assay: Anticancer activity, SRB assay, non-small lung cell line NCI-H522; format: cell-based, human; conditions: Homo sapiens, NCI-H522; Non-small lung NCl-H522; 48 h continuous drug exposure; —^b means GI50 values not attained at the concentrations used; read-out: Growth Inhibition GI50
Protocol: as §1, §2

U251 = assay: Anticancer activity, SRB assay, CNS cell line U251; format: cell-based; conditions: Homo sapiens, U-251, 48 h continuous drug exposure, read-out: Growth Inhibition GI50
Protocol: as §1, §2

[6] = system: six CNS cancer cell line (SF-268, SF-295, SF-539, SNB-19, SNB-75 and U251); assay: Anticancer activity, SRB assay, CNS panel; format: cell-based, human
Protocol: as §1, §2

SK-MEL-5 = assay: Anticancer activity, SRB assay, melanoma cell line SK-MEL-5; format: cell-based; conditions: Homo sapiens; Melanoma SK-MEL-5; 48 h continuous drug exposure; read-out: Growth Inhibition GI50
Protocol: as §1, §2

**Q.** For `Cc1cc(C#Cc2ccccc2)ccc1-n1c(/C=C/c2ccc(O)cc2)nc2ccccc2c1=O` [Compound 4b, (E)-2-(4-Hydroxystyryl)-3-(2-methyl-4-(phenylethynyl)phenyl)quinazolin-4(3H)-one], which GI50 ([1]; Homo sapiens, seven ovarian cancer cell lines, exposure period of at least 48 h, read-out: GI50 (range over the panel)) is on record?
**A.** The GI50 was 3090 to 20600 nM.

**Q.** And the “mean graph midpoint values (MG_MID) of log10 TGI (Log10TGI50)” value (“mean graph midpoint values … (Log10TGI50)” for short) ([1]; Ovarian, log value of concentration of the compound resulting in total inhibition of net cell growth)?
**A.** The value was −4.23.

**Q.** What about the “mean graph midpoint values (MG_MID) of Log10LC50” value ([1]; Ovarian, log value of the concentration of compounds leading to 50% net cell death) of the same molecule?
**A.** The value was over −4.00.

**Q.** And the “mean graph midpoint values (MG_MID) of Log10GI50” value ([1]; Ovarian, log values of concentration in mol/L causing 50% inhibition of net cell growth)?
**A.** Its value is −5.33 mol/L.

**Q.** And the GI50 (K-562)?
**A.** Its GI50 is 2000 nM.

**Q.** And the GI50 (MCF7)?
**A.** The GI50 was 2720 nM.

**Q.** And the GI50 (LOX IMVI)?
**A.** The GI50 was 2780 nM.

**Q.** What about the GI50 (UACC-62) of the same molecule?
**A.** Its GI50 is 3480 nM.

**Q.** What about the GI50 (IGROV1) of the same molecule?
**A.** The GI50 was 20600 nM.

**Q.** What about the GI50 (HT29) of the same molecule?
**A.** Its GI50 is 3330 nM.

**Q.** What about the GI50 (HOP-92) of the same molecule?
**A.** Its GI50 is 2500 nM.

**Q.** And the GI50 (T-47D)?
**A.** Its GI50 is 2020 nM.

**Q.** What about the GI50 [2] of the same molecule?
**A.** Its GI50 is 2220 to 13100 nM.

**Q.** What about the “mean graph midpoint values … (Log10TGI50)” value ([3]; log value of concentration of the compound resulting in total inhibition of net cell growth) of the same molecule?
**A.** The value was −4.32.

**Q.** And the “mean graph midpoint values (MG_MID) of Log10LC50” value ([3]; log value of the concentration of compounds leading to 50% net cell death)?
**A.** Its value is −4.04.

**Q.** And the “mean graph midpoint values (MG_MID) of Log10GI50” value ([3]; log values of concentration in mol/L causing 50% inhibition of net cell growth)?
**A.** Its value is −5.47 mol/L.

**Q.** And the GI50 (SF-539)?
**A.** Its GI50 is 5650 nM.

**Q.** And the GI50 (NCI-H23)?
**A.** The GI50 was 3620 nM.

**Q.** What about the “in vitro anticancer activity (in words)” value [4] of the same molecule?
**A.** Its value is “exhibiting an in vitro anticancer activity”.

**Q.** And the GI50 (DU-145)?
**A.** Its GI50 is 4870 nM.

**Q.** And the GI50 (NCI-H460)?
**A.** Its GI50 is 2220 nM.

**Q.** What about the GI50 (HL-60(TB)) of the same molecule?
**A.** Its GI50 is 1660 nM.

**Q.** What about the GI50 (SN12C) of the same molecule?
**A.** Its GI50 is 3770 nM.

**Q.** What about the GI50 ([5]; Homo sapiens, eight renal cancer cell line, exposure period of at least 48 h, read-out: in vitro anticancer activity (range over the panel)) of the same molecule?
**A.** Its GI50 is 1560 to 3770 nM.

**Q.** What about the “mean graph midpoint values … (Log10TGI50)” value ([5]; Renal, log value of concentration of the compound resulting in total inhibition of net cell growth) of the same molecule?
**A.** The value was −4.65.

**Q.** And the “mean graph midpoint values (MG_MID) of Log10LC50” value ([5]; Renal, log value of the concentration of compounds leading to 50% net cell death)?
**A.** Its value is over −4.00.

**Q.** And the “mean graph midpoint values (MG_MID) of Log10GI50” value ([5]; Renal, log values of concentration in mol/L causing 50% inhibition of net cell growth)?
**A.** The value was −5.52 mol/L.

**Q.** And the GI50 (NCI-H322M)?
**A.** Its GI50 is 2930 nM.

**Q.** And the GI50 (SF-295)?
**A.** Its GI50 is 2850 nM.

**Q.** And the GI50 (NCI-H522)?
**A.** Its GI50 is 2260 nM.

**Q.** And the GI50 (U251)?
**A.** The GI50 was 4330 nM.

**Q.** And the “mean graph midpoint values … (Log10TGI50)” value ([6]; CNS, log value of concentration of the compound resulting in total inhibition of net cell growth)?
**A.** Its value is −4.21.

**Q.** What about the “mean graph midpoint values (MG_MID) of Log10LC50” value ([6]; CNS, log value of the concentration of compounds leading to 50% net cell death) of the same molecule?
**A.** Its value is over −4.00.

**Q.** What about the “mean graph midpoint values (MG_MID) of Log10GI50” value ([6]; CNS, log values of concentration in mol/L causing 50% inhibition of net cell growth) of the same molecule?
**A.** The value was −5.35 mol/L.

**Q.** What about the GI50 ([6]; Homo sapiens, six CNS cancer cell line, exposure period of at least 48 h, read-out: GI50 (range over the panel)) of the same molecule?
**A.** Its GI50 is 2850 to 6910 nM.

**Q.** And the GI50 (SK-MEL-5)?
**A.** The GI50 was 1770 nM.
